Laboratory results from publication PMC2915899 (Journal of medicinal chemistry, 2010).

Columns and labels:
NadD = NadD inhibition, enzyme species not stated at the place; assay type: biochemical; conditions: 1_02_1 compared with 1_13 and 1_15 (Fig. 4A)
baNadD = baNadD (Bacillus anthracis, UniProt C3L5T6); assay type: biochemical
baNadD, sequence (C3L5T6 whole entry, looked up): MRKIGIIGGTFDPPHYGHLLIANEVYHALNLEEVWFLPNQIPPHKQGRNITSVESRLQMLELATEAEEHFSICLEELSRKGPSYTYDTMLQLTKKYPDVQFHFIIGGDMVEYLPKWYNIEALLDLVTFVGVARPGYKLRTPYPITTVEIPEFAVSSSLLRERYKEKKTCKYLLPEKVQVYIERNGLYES

Compound	improvement in activity over monomeric precursors 1_13 and 1_15 (NadD)	inhibition of baNadD (baNadD)
O=C(CCC(=O)Nc1ccccc1Cl)N/N=C/c1ccc(/C=N/NC(=O)CCC(=O)Nc2ccccc2Cl)cc1 [Compound 1_02_1, N-(2-Chloro-phenyl)-3-(4-{[3-(2-chloro-phenylcarbamoyl)-propionyl]-hydrazonomethyl}-benzylidene-hydrazinocarbonyl)-propionamide]	more than 10 fold	
{N'-(4-{Carboxymethyl-[3-(2-chloro-phenylcarbamoyl)-propionyl]-hydrazonomethyl}-benzylidene)-N-[3-(2-chloro-phenylcarbamoyl)-propionyl]-hydrazino}-acetic acid [Compound 1_02_2]		did not inhibit
